Source: ChEMBL document CHEMBL1201862, “PubChem BioAssay data set” (2004)
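Grown in 96-well plates, cells were treated for 48 hours with each compound at five concentrations. Insufficient inhibition: endpoint recorded as highest concentration tested. The concentration for 50% growth inhibition is given as GI50.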 Activity calls are given as the source filed them. No stated cut-off is given here; in the data, active = GI50 up to about 1.1 µM and inactive = higher.

Columns and labels:
Assay in all cases: inhibition of tumour cell growth, NCI panel, 48 h
[1] = test system: KM-20L2
[2] = test system: LXFL 529
[3] = test system: RXF 631
[4] = test system: SNB-78
[5] = test system: XF498
[6] = test system: DLD-1
[7] = test system: DMS-273
[8] = test system: BT-549
[9] = test system: HOP-18

In the case of `C[Si](C)(C)/C=C\CCCN1C(=O)CCC1=O`, the GI50 [1] is reported as > 100 µM (inactive), the GI50 [2] is reported as > 100 µM (inactive) and the GI50 [3] is reported as > 100 µM (inactive). For the same compound, the GI50 [4] was > 100 µM (inactive) and the GI50 [5] was > 100 µM (inactive).
`Nc1ccc(C(=O)NN2C(=O)C(Cl)C2c2cccc(O)c2)cc1` (stereo not drawn) was tested, and the GI50 [6] was 14.4 µM (inactive), the GI50 [7] was 11 µM (inactive) and the GI50 [1] was 17.1 µM (inactive). The GI50 [2] was 11.7 µM (inactive) and the GI50 [4] was 17.5 µM (inactive).
In the case of `CC1CC(=O)C(CC(=O)O)C1C(C(=O)C(=O)Nc1c(C#N)cccc1[N+](=O)[O-])[N+](=O)[O-]` (stereo not drawn), the GI50 [6] is reported as > 100 µM (inactive), the GI50 [1] is reported as > 100 µM (inactive) and the GI50 [2] is reported as > 100 µM (inactive). The GI50 [4] was 80.4 µM (inactive) and the GI50 [5] was > 100 µM (inactive).
For `c1cc2cc3c4c5c(cc6ccc7cc8cc9c%10c8c8c7c6c5c8c5c%10c(c1C9N1CCOCCOCCOCCOCCOCC1)c2c45)C3` (stereo not drawn), the GI50 [8] was > 100 µM (inactive).
`CCCCNC(=O)c1cc(S(=O)(=O)n2ccnc2O)c(SC)cc1Cl` was tested, and the GI50 [8] was > 100 µM (inactive).
With `CN(CCO)c1nc2c(c(=O)[nH]1)CNCC2` the GI50 [6] was > 100 µM (inactive), the GI50 [7] was > 100 µM (inactive) and the GI50 [9] was > 100 µM (inactive). The GI50 [1] was > 100 µM (inactive), the GI50 [2] was > 100 µM (inactive) and the GI50 [4] was > 100 µM (inactive). For the same compound, the GI50 [5] was > 100 µM (inactive).
In the case of `CCOc1ccc(NC(=S)N/C=C(/C(C)=O)C(=O)Nc2ccccc2C)cc1`, the GI50 [8] is reported as > 100 µM (inactive).
In the case of `CC1=CC(O)(c2ccccc2)C(N2CCOCC2)N1O` (stereo not drawn), the GI50 [8] is reported as > 100 µM (inactive).
With `OC(COc1cccc2ccccc12)CN1CCOCC1` (stereo not drawn) the GI50 [8] was > 100 µM (inactive).
With `Cc1n[nH]c(=O)n1/N=C/c1cccnc1` the GI50 [8] was > 100 µM (inactive).
In the case of `Cc1ccc(-c2nc3cc(F)c(N4CCN(C)CC4)cc3[nH]2)cc1`, the GI50 [8] is reported as 22.1 µM (inactive).
For `CC(=O)NS(=O)(=O)c1ccc(NC(=O)COC(=O)c2cccc3c(=O)c4ccccc4[nH]c23)cc1`, the GI50 [7] was > 100 µM (inactive), the GI50 [9] was > 100 µM (inactive) and the GI50 [5] was > 100 µM (inactive).
For `COC(=O)C(=O)C(C(=O)C(=O)Nc1ccc(OC)cc1[N+](=O)[O-])c1nc2ccc([N+](=O)[O-])cc2nc1O` (stereo not drawn), the GI50 [6] was > 100 µM (inactive), the GI50 [9] was > 100 µM (inactive) and the GI50 [1] was > 100 µM (inactive). For the same compound, the GI50 [2] was > 100 µM (inactive), the GI50 [4] was > 100 µM (inactive) and the GI50 [5] was > 100 µM (inactive).
In the case of `N=C(N)NCCCC(NCc1c2ccccc2nc2ccccc12)C(=O)O` (stereo not drawn), the GI50 [8] is reported as 30.9 µM (inactive), the GI50 [6] is reported as 17.3 µM (inactive) and the GI50 [7] is reported as 31.3 µM (inactive). The GI50 [1] was 29.4 µM (inactive) and the GI50 [2] was 38.5 µM (inactive).
In the case of `O[C@H]1[C@H]2[C@H](O)CCCN2C[C@H]1O` [TRIDOLGOSIR], the GI50 [6] is reported as > 100 µM (inactive), the GI50 [7] is reported as > 100 µM (inactive) and the GI50 [9] is reported as > 100 µM (inactive). The GI50 [1] was > 100 µM (inactive), the GI50 [2] was > 100 µM (inactive) and the GI50 [4] was > 100 µM (inactive). For the same compound, the GI50 [5] was > 100 µM (inactive).
`CC(C)(C)OC(=O)NC(Cc1ccccc1)C(=O)OCN1C(=O)C2C3C=CC(C2C1=O)C1C2C(=O)N(COC(=O)C(Cc4ccccc4)NC(=O)OC(C)(C)C)C(=O)C2C31` (stereo not drawn) was tested, and the GI50 [8] was 18.6 µM (inactive).
`CC(=O)Oc1cccc2c1C(=O)CCCC2` was tested, and the GI50 [8] was > 100 µM (inactive).
`NCCCN(CCCN(C(=O)Nc1ccccc1)c1ccccc1)C(=O)Nc1ccccc1` was tested, and the GI50 [8] was 31 µM (inactive).
With `Cc1cc2c(cc1C)NC1=C(O)C(c3c[nH]c4ccc(COc5ccccc5)cc34)OC1=N2` (stereo not drawn) the GI50 [8] was > 100 µM (inactive).
`CN(C)CCNC1=Nc2ccccc2C(=O)N2CSCC12` (stereo not drawn) was tested, and the GI50 [8] was > 100 µM (inactive).
For `O=C(O)c1cc2c(s1)C(=O)c1sccc1C2=O`, the GI50 [8] was 1.91 µM (inactive), the GI50 [6] was 14.4 µM (inactive) and the GI50 [7] was 10.9 µM (inactive). For the same compound, the GI50 [9] was 5.52 µM (inactive), the GI50 [1] was 19.2 µM (inactive) and the GI50 [4] was 0.264 µM (active). For the same compound, the GI50 [5] was 20.9 µM (inactive).
For `Cn1c(=S)c2nc(SCc3cccnc3)[nH]c2n(C)c1=O`, the GI50 [8] was > 100 µM (inactive).
With `COC(=O)CC1(O)C(C=C(C)C)C(C(=O)OC)C(=O)C(C(=O)OC)C1C(=O)OC` (stereo not drawn) the GI50 [8] was 11.4 µM (inactive).
For `Oc1ccc(Cl)cc1C1=NC(/N=C\c2ccccc2)=NC(c2ccccc2)C1` (stereo not drawn), the GI50 [8] was > 100 µM (inactive).
For `N#Cc1c(NCCc2ccc(F)cc2)c2ccccc2n2c1nc1ccccc12`, the GI50 [8] was 21.2 µM (inactive).
With `Cc1cc(-c2nc3c(F)cccc3s2)ccc1N` the GI50 [8] was 66.1 µM (inactive).
In the case of `CC[C@@H]1CC[C@@H]2[C@H](CC[C@]3(C)[C@@H](O)CC[C@@H]23)[C@H]1CO`, the GI50 [8] is reported as > 100 µM (inactive).
`CCCCNc1nc(C#N)c(N)s1` was tested, and the GI50 [6] was > 100 µM (inactive), the GI50 [7] was > 100 µM (inactive) and the GI50 [1] was > 100 µM (inactive). For the same compound, the GI50 [2] was > 100 µM (inactive), the GI50 [3] was > 100 µM (inactive) and the GI50 [4] was > 100 µM (inactive). The GI50 [5] was > 100 µM (inactive).
In the case of `O=C(NC(=S)Nc1ccc(Br)cc1)c1ccc2c(c1)Sc1ccccc1O2`, the GI50 [8] is reported as > 100 µM (inactive).
For `CCOC(=O)c1cc(C2CCN(Cc3ccccc3)C2=O)c(C(=O)C(=[N+]=[N-])C(C)=O)[nH]1` (stereo not drawn), the GI50 [8] was > 100 µM (inactive).
For `O=C(CSSCC(=O)OCCS(=O)(=O)Nc1ccc(Br)cc1)OCCS(=O)(=O)Nc1ccc(Br)cc1`, the GI50 [6] was 15.7 µM (inactive), the GI50 [7] was 9.51 µM (inactive) and the GI50 [9] was > 100 µM (inactive). The GI50 [1] was 22.9 µM (inactive), the GI50 [2] was 7.1 µM (inactive) and the GI50 [4] was 17.1 µM (inactive).
